Measured values reported in PubChem BioAssay AID276 (DTP/NCI, 2004).
Values joined by “and” are separate entries in the source; they are usually repeats but may differ in a detail not shown here. Equal values may be shown once. Toxic doses and inconclusive results are not listed. How the source made its calls: active means survival T/C of 150% or more; inactive means T/C below 125% in these data. Residues, ends and D or L forms follow the SMILES beside them. *: point of attachment. Trt = c1ccc(C(c2ccccc2)(c2ccccc2)*)cc1; Cbz = O=C(OCc1ccccc1)*

Test system: B6C3F1 mice, Lewis lung carcinoma iv, survival T/C
Experiment: NCI In Vivo Anticancer Drug Screen. Data for tumor model Lewis Lung Carcinoma (intravenous) in B6C3F1 mice
Conditions: endpoint: median survival time, higher = longer survival
Procedure, shortened: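 Transplantable tumor in mice; compound treated vs vehicle controls; read-out survival; value = treated/control (T/C).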

[1] = dose: 12.5 mg/kg/injection, schedule: Q01DX009 (ip), vehicle: distilled water + Tween-80
[2] = dose: 25.0 mg/kg/injection, schedule: Q01DX009 (ip), vehicle: distilled water + Tween-80
[3] = dose: 50.0 mg/kg/injection, schedule: Q01DX009 (ip), vehicle: distilled water + Tween-80
[4] = dose: 100.0 mg/kg/injection, schedule: Q01DX009 (ip), vehicle: distilled water + Tween-80
[5] = dose: 200.0 mg/kg/injection, schedule: Q01DX009 (ip), vehicle: distilled water + Tween-80
[6] = dose: 400.0 mg/kg/injection, schedule: Q01DX009 (ip), vehicle: distilled water + Tween-80
[7] = dose: 1.5 mg/kg/injection, schedule: Q01DX009 (ip), vehicle: saline
[8] = dose: 3.0 mg/kg/injection, schedule: Q01DX009 (ip), vehicle: saline
[9] = dose: 6.0 mg/kg/injection, schedule: Q01DX009 (ip), vehicle: saline
[10] = dose: 12.0 mg/kg/injection, schedule: Q01DX009 (ip), vehicle: saline
[11] = dose: 12.5 mg/kg/injection, schedule: Q01DX009 (ip), vehicle: saline
[12] = dose: 25.0 mg/kg/injection, schedule: Q01DX009 (ip), vehicle: saline
[13] = dose: 50.0 mg/kg/injection, schedule: Q01DX009 (ip), vehicle: saline
[14] = dose: 100.0 mg/kg/injection, schedule: Q01DX009 (ip), vehicle: saline
[15] = dose: 200.0 mg/kg/injection, schedule: Q01DX009 (ip), vehicle: saline
[16] = dose: 6.25 mg/kg/injection, schedule: Q01DX009 (ip), vehicle: saline
[17] = dose: 1.0 mg/kg/injection, schedule: Q01DX009 (ip), vehicle: saline
[18] = dose: 3.12 mg/kg/injection, schedule: Q01DX009 (ip), vehicle: saline
[19] = dose: 12.5 mg/kg/injection, schedule: Q01DX009 (ip), vehicle: saline with Tween-80

Measured: T/C

COC(=O)C(CSC(c1ccccc1)(c1ccccc1)c1ccccc1)NC(=O)C(CC(N)=O)NC(=O)OCc1ccccc1 (stereo not drawn) (Cbz-Asn-Cys(Trt)-OMe; configuration not given here)
inactive: [1] 97 % of control | [2] 103 % of control | [3] 103 % of control | [4] 98 % of control | [5] 97 % of control | [6] 98 % of control

CCCCCCCCCCCC(=O)NC1CC(O[C@H]2C[C@](O)(C(=O)CO)Cc3c(O)c4c(c(O)c32)C(=O)c2c(OC)cccc2C4=O)OC(C)C1O (some centres undefined)
inactive: dose: 6.25 mg/kg/injection, schedule: Q01DX009 (ip), vehicle: distilled water + Tween-80 96 % of control | [1] 100 % of control | [2] 102 % of control | [3] 119 % of control

[N-]=[N+]=[N-]
inactive: [7] 96 % of control | [8] 98 % of control | [9] 106 % of control | [10] 95 % of control

CN(C)CCN1C(=O)c2cccc3cc(N)cc(c23)C1=O
inactive: dose: 1.0 mg/kg/injection, schedule: Q01DX009 (ip), vehicle: saline with Tween-80 115 % of control | dose: 2.0 mg/kg/injection, schedule: Q01DX009 (ip), vehicle: saline with Tween-80 106 % of control | dose: 4.0 mg/kg/injection, schedule: Q01DX009 (ip), vehicle: saline with Tween-80 111 % of control | dose: 8.0 mg/kg/injection, schedule: Q01DX009 (ip), vehicle: saline with Tween-80 119 % of control

Cc1ncc([N+](=O)[O-])n1CCSC(N)=O
inactive: [11] 107 % of control | [12] 102 % of control | [13] 110 % of control | [14] 95 % of control | [15] 106 % of control | dose: 400.0 mg/kg/injection, schedule: Q01DX009 (ip), vehicle: saline 97 % of control

O=[N+]([O-])c1c(O)c(CNCCCO)cc(CNCCCO)c1O
inactive: [16] 100 % of control | [11] 113 % of control | [12] 102 % of control

COC(=O)C[C@](O)(CCC(C)(C)O)C(=O)O[C@@H]1C(OC)=C[C@]23CCCN2CCc2cc4c(cc2[C@H]13)OCO4
inactive: dose: 0.25 mg/kg/injection, schedule: Q01DX009 (ip), vehicle: saline 98 % of control and 104 % of control | dose: 0.5 mg/kg/injection, schedule: Q01DX009 (ip), vehicle: saline 103 % of control and 106 % of control | [17] 94 % of control and 102 % of control

CCCCCCCC(=O)OCC(=O)[C@]1(O)Cc2c(O)c3c(c(O)c2[C@@H](OC2CC(N)C(O)C(C)O2)C1)C(=O)c1c(OC)cccc1C3=O (some centres undefined)
inactive: [17] 102 % of control | dose: 1.0 mg/kg/injection, schedule: Q01DX009 (ip), vehicle: suspension in saline 120 % of control | dose: 2.0 mg/kg/injection, schedule: Q01DX009 (ip), vehicle: saline 124 % of control | dose: 2.0 mg/kg/injection, schedule: Q01DX009 (ip), vehicle: suspension in saline 112 % of control

CCOC(=O)C(N)CSC(=O)NC (centres undefined)
inactive: [11] 98 % of control | [12] 103 % of control | [13] 93 % of control | [14] 101 % of control | [15] 109 % of control

COC(=O)C12OCC34C(CC5C(C)C6=CC(=O)OC6=CC5(C)C3C(O)C1O)OC(=O)C(OC(C)=O)C24 (centres undefined)
inactive: dose: 2.0 mg/kg/injection, schedule: Q01DX009 (ip), vehicle: saline + alcohol 102 % of control | dose: 4.0 mg/kg/injection, schedule: Q01DX009 (ip), vehicle: saline + alcohol 97 % of control | dose: 8.0 mg/kg/injection, schedule: Q01DX009 (ip), vehicle: saline + alcohol 96 % of control | dose: 16.0 mg/kg/injection, schedule: Q01DX009 (ip), vehicle: saline + alcohol 98 % of control | dose: 125.0 micrograms/kg/injection, schedule: Q01DX009 (ip), vehicle: saline + alcohol 114 % of control | dose: 250.0 micrograms/kg/injection, schedule: Q01DX009 (ip), vehicle: saline + alcohol 118 % of control | dose: 500.0 micrograms/kg/injection, schedule: Q01DX009 (ip), vehicle: saline + alcohol 109 % of control | dose: 1000.0 micrograms/kg/injection, schedule: Q01DX009 (ip), vehicle: saline + alcohol 106 % of control | dose: 2000.0 micrograms/kg/injection, schedule: Q01DX009 (ip), vehicle: saline + alcohol 112 % of control

CC(C)NCC(O)COc1ccc(O)c(O)c1 (centres undefined)
inactive: [12] 93 % of control and 96 % of control | [13] 98 % of control and 100 % of control | [14] 89 % of control and 96 % of control | [15] 98 % of control

COc1cccc2c1C(=O)c1c(O)c3c(c(O)c1C2=O)C[C@H](O)C[C@@H]3OC1CC(N)C(O)C(C)O1 (some centres undefined)
inactive: dose: 0.75 mg/kg/injection, schedule: Q01DX009 (ip), vehicle: water 100 % of control | dose: 1.5 mg/kg/injection, schedule: Q01DX009 (ip), vehicle: water 104 % of control | dose: 3.0 mg/kg/injection, schedule: Q01DX009 (ip), vehicle: water 100 % of control | dose: 6.0 mg/kg/injection, schedule: Q01DX009 (ip), vehicle: water 104 % of control

CCC(C(=O)O)C(=O)O.[NH2-].[NH2-].[Pt+2]
inactive: [18] 102 % of control | [16] 103 % of control | [11] 120 % of control | [12] 112 % of control and 120 % of control | [13] 109 % of control and 118 % of control

Cc1ccoc1
inactive: dose: 8.3 mg/kg/injection, schedule: Q03HX027 (ip), vehicle: saline with Tween-80 107 % of control | dose: 16.6 mg/kg/injection, schedule: Q03HX027 (ip), vehicle: saline with Tween-80 112 % of control | dose: 33.3 mg/kg/injection, schedule: Q03HX027 (ip), vehicle: saline with Tween-80 100 % of control | dose: 66.6 mg/kg/injection, schedule: Q03HX027 (ip), vehicle: saline with Tween-80 102 % of control

O=C(Nc1ccccc1C(=O)O)c1cc([N+](=O)[O-])cc([N+](=O)[O-])c1
inactive: [19] 96 % of control | dose: 25.0 mg/kg/injection, schedule: Q01DX009 (ip), vehicle: saline with Tween-80 91 % of control | dose: 50.0 mg/kg/injection, schedule: Q01DX009 (ip), vehicle: saline with Tween-80 102 % of control | dose: 100.0 mg/kg/injection, schedule: Q01DX009 (ip), vehicle: saline with Tween-80 102 % of control | dose: 200.0 mg/kg/injection, schedule: Q01DX009 (ip), vehicle: saline with Tween-80 95 % of control

CC(=O)Oc1c[nH]c(=O)[nH]c1=O
inactive: [1] 102 % of control | [2] 95 % of control | [3] 92 % of control | [4] 100 % of control | [5] 95 % of control | [6] 94 % of control

C[n+]1c2cc(N)ccc2cc2ccc(N)cc21
inactive: [7] 102 % of control | [8] 95 % of control | [9] 107 % of control | [10] 90 % of control

CCc1nc(N)nc(N)c1-c1ccc(Cl)c([N+](=O)[O-])c1
inactive: dose: 1.56 mg/kg/injection, schedule: Q01DX009 (ip), vehicle: saline with Tween-80 104 % of control | dose: 3.12 mg/kg/injection, schedule: Q01DX009 (ip), vehicle: saline with Tween-80 105 % of control | dose: 6.25 mg/kg/injection, schedule: Q01DX009 (ip), vehicle: saline with Tween-80 104 % of control | [19] 105 % of control

COC(=O)Nc1nc2ccc(C3(c4ccc(F)cc4)OCCO3)cc2[nH]1
inactive: dose: 1.56 mg/kg/injection, schedule: Q01DX009 (ip), vehicle: saline 97 % of control | [18] 106 % of control | [16] 102 % of control | [11] 104 % of control | [12] 117 % of control
